# According to patent US5932709A (University of Michigan, priority 1997, dated 1999):
# Assays:
# [1] = system: HT-29 human colon adenocarcinoma cells; test: MTT growth inhibition, HT-29; assay type: cell-based; details: 144 h, HT-29, MTT, 6 days, read-out: Growth Inhibitory Activity IC50
# Experimental: Camptothecin was used as a control to test the anti-cancer efficacy of the novel camptothecin analogs of the present invention.
# Murine B16 melanoma cell line was grown in RPMI 1640 medium supplemented with 10% heat-inactivated fetal bovine serum, 2 mM L-glutamine, 50 units/mL penicillin, 50 μg/mL streptomycin, 25 μg/mL gentamicin, 0.75% sodium bicarbonate 10 mM HEPES buffer (pH 7.4), and 0.06 mg/mL AntiPPLO. Murine P388 leukemic cell line and human HT-29 colon adenocarcinoma line were maintained in RPMI 1640 medium supplemented with 10% heat-inactivated fetal bovine serum. […] MCF-7M human breast adenocarcinoma was maintained in IMEM supplemented with 5% non heat-inactivated fetal bovine serum and 1 nM insulin.
# [See "Rapid Colorimetric Assay For Cellular Growth And Survival: Application To Proliferation And Cytotoxicity Assays," J. Immun. Meth. 65:55 (1983)]. The assay utilizes a tetrazolium salt to quantitatively measure mammalian cell survival and proliferation by colorimetric methods. In particular, MTT, a pale yellow compound with minimal absorbance, is incubated with cancerous cells in addition to (or in the absence of) a particular camptothecin analog. Living cells with active mitochondrial enzymes metabolize the MTT into a dark blue/purple formazan product with high absorbance. The exact procedure used to test the camptothecin analogs of the present invention is described below.
# Exponentially growing cells (1-2×10^3 cells, unless specified otherwise) in 0.1 mL medium were seeded on day 0 in a 96-well microtiter plate. On day 1, 0.1 mL aliquots of medium containing graded concentrations of test analogs were added to the cell plates. After incubation at 37° C. in a humidified incubator for 3 days (P388, P388/CPT, B16) or 6 days (HT-29, MCF-7M), the plates were centrifuged briefly and 100 μL of the growth medium was removed. Cell cultures were incubated with 50 μL of 3-(4,5-dimethylthiazol-2-yl)-2,5-diphenyl-tetrazolium bromide [MTT, 1 mg/mL in Dulbecco's phosphate buffered saline (PBS)] for 4 hr at 37° C. The resulting purple formazan precipitate was solubilized with 200 μL of 0.04 N HCl in isopropyl alcohol. Absorbance was monitored in a BioRad Model 3550 Microplate Reader at a test wavelength of 570 nm and a reference wavelength of 630 nm. The absorbance is transferred to a PC 486 computer. The IC50 values were determined by a computer program (EZ-ED50) that fits all of the data to the following four-parameter logistic equation:
# Y=(Amax -Amin)/(1+[X/IC^50 ])^n +Amin
# where Amax is the absorbance of control cells, Amin is the absorbance of cells in the presence of highest agent concentration, IC^50 is the concentration of agent that inhibits the cell growth by 50% of control cells (based on the absorbance) and n is the slope of the curve.
# [2] = biological target: T1, human placental topoisomerase I (Homo sapiens, UniProt P11387); test: Inhibition of topoisomerase I catalytic activity (relaxation of supercoiled SV40 DNA); assay type: biochemical; details: for relaxation of supercoiled DNA: FIG. 18 / FIG. 19, in words; for topoisomerase I inhibitory activity: comparison in words, vs camptothecin; for topoisomerase I inhibition: highest concentration tested (100 μg/mL), in words
# T1 construct: purchased TopoGen; host or cells: human placenta
# T1 sequence (P11387 1-765): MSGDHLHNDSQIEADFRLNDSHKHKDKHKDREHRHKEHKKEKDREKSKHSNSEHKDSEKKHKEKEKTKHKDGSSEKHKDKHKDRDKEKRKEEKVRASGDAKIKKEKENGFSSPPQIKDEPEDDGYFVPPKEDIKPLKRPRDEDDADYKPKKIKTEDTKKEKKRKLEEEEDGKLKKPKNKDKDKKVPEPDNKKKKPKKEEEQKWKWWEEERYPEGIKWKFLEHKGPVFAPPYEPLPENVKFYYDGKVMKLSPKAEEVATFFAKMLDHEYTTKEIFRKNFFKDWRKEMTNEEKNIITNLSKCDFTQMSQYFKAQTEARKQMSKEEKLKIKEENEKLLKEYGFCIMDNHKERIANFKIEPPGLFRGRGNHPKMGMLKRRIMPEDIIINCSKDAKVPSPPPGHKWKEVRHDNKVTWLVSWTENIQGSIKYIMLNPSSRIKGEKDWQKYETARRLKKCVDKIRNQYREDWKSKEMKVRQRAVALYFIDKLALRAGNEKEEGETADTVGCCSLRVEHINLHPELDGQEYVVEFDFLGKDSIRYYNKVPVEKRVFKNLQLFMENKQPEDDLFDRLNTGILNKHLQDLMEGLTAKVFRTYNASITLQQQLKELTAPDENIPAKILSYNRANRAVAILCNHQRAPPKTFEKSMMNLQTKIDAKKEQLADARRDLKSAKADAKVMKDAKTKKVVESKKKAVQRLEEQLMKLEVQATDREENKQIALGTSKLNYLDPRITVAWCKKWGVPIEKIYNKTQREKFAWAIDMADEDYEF
# Experimental: The topoisomerase I catalytic activity was measured by converting the supercoiled SV40 DNA (Form I) to the relaxed form (Form Io). All reactions were performed in 20 μL reaction buffer (Tris-HCl, 10 mM, pH 7.5; EDTA, 1 mM; NaCl, 100 mM) with 0.25 μg SV40 DNA, 0.5 unit of human placental topoisomerase I (TopoGen) and graded concentrations of the analog tested. The reaction mixtures were incubated at 37° C. for 30 minutes. […] Ten μL of the reaction mixture was loaded onto a 1% agarose gel prepared in TAE buffer containing 2 μg/mL chloroquine; and the electrophoresis was performed at 82 volt for 4.5 hr in the TAE buffer containing 2 μg/mL chloroquine. […] The gels were then stained with 0.5 μg/mL ethidium bromide solution for 30 min or longer (if chloroquine is present during the electrophoresis step), and destained with 5 changes of deionized water. […] The DNA bands (image) on the negative were densitometrically scanned with a Molecular Dynamic Personal Densitometer. The percent inhibition of Toposiomerase I activity is calculated based on the following equation:
# % Inhibition=(FSC(E+D) -FSC(E))/(FSC(C)
# where FSC(E+D) represents fraction of supercoiled DNA in the presence of enzyme and drug; FSC(E) represents fraction of supercoiled DNA in the presence of enzyme alone; FSC(C) represents fraction of supercoiled DNA in the untreated SV40 DNA; the IC50 value was estimated using the same four-parameter logistic equation described in the in vitro growth inhibition studies.
smiles,measurement,setting,value
"CC[C@@]1(O)C(=O)OCc2c1cc1n(c2=O)Cc2c-1nc1ccccc1c2CO[C@@H]1C=C[C@H](OC(C)=O)[C@@H](COC(C)=O)O1 [HAR4, 7-[4,6-di-O-acetyl-2,3-dideoxy-α-D-erythro-hex-2-enopyranosyl]oxymethylcamptothecin]",IC50,[1],0.011 µg/mL
same,IC50,[2],42.3 µM
same,relaxation of supercoiled DNA,[2],inhibition of relaxation of supercoiled DNA
same,topoisomerase I inhibitory activity,[2],quite similar to those of camptothecin
"CC[C@@]1(O)C(=O)OCc2c1cc1n(c2=O)Cc2c-1nc1ccccc1c2CO[C@@H]1C=C[C@H](O[C@H]2O[C@H](COC(C)=O)[C@@H](OC(C)=O)[C@H](OC(C)=O)[C@H]2OC(C)=O)[C@@H](COC(C)=O)O1 [HAR5, 7-[6-O-acetyl-4-O-(2,3,4,6-tetra-O-acetyl-α-D-glucopyranosyl)-2,3-dideoxy-α-D-erythro-hex-2-enopyranosyl]oxymethylcamptothecin]",IC50,[1],0.105 µg/mL
same,IC50,[2],> 114 µM
same,relaxation of supercoiled DNA,[2],inhibition of relaxation of supercoiled DNA
same,topoisomerase I inhibition,[2],moderately inhibited topoisomerase I activity
"CC[C@@]1(O)C(=O)OCc2c1cc1n(c2=O)Cc2c-1nc1ccccc1c2CO[C@@H]1C=C[C@H](O[C@H]2O[C@H](CO)[C@@H](O)[C@H](O)[C@H]2O)[C@@H](CO)O1 [HAR6, 7-[4-O-(α-D-glucopyranosyl)-2,3-dideoxy-α-D-erythro-hex-2-enopyranosyl]-oxymethylcamptothecin]",IC50,[1],0.476 µg/mL
same,IC50,[2],> 150 µM
same,relaxation of supercoiled DNA,[2],inhibition of relaxation of supercoiled DNA
same,topoisomerase I inhibition,[2],moderately inhibited topoisomerase I activity
"CC[C@@]1(O)C(=O)OCc2c1cc1n(c2=O)Cc2c-1nc1ccccc1c2CO[C@@H]1C=C[C@H](O)[C@@H](CO)O1 [HAR7, 7-[2,3-dideoxy-α-D-erythro-hex-2-enopyranosyl]-oxymethylcamptothecin]",IC50,[1],0.031 µg/mL
same,IC50,[2],3.95 µM
same,relaxation of supercoiled DNA,[2],inhibition of relaxation of supercoiled DNA
same,topoisomerase I inhibitory activity,[2],quite similar to those of camptothecin
same,topoisomerase I inhibition relative to HAR4,[2]; more inhibitory than HAR4,10 times
